The results in this text go back to ChEMBL document CHEMBL5729039, “Macrocyclic fluorine substituted indole derivatives” (2022).

In one test the target is Bcl-2-like protein 1 (Homo sapiens, UniProt Q07817). In words: (§1) Biological Assay: BCL-XL Assay: In the assay 11 different concentrations of each compound (0.1 nM, 0.33 nM, 1.1 nM, 3.8 nM, 13 nM, 44 nM, 0.15 μM, 0.51 μM, 1.7 μM, 5.9 μM and 20 μM) were typically measured as duplicates in the same microtiter plate. For that, 100-fold concentrated DMSO solutions were prepared by serial dilutions (1:3.4) of a 2 mM stock solution in a clear, 384-well microtiter plate (Greiner Bio-One, Frickenhausen, Germany). From there, 50 nl were transferred in a dark test plate (Greiner Bio-One, Frickenhausen, Germany). The assay was initiated by addition of 2 μl of a 2,5-fold concentrated His-BCL-XL solution (usually for a 1 nM end concentration in 5 μl reaction volume) in aqueous assay buffer [50 mM Tris/HCl pH 7, 100 mM sodium chloride (NaCl), 50 μM potassium fluoride (KF), 0.005% Tween-20, 2 mM DTT, 0.1% bovine gamma globulin (BGG)] to the compounds in the assay plate. This was followed by a 10-minute incubation step at 22° C. for pre-equilibration of the putative complex between His-BCL-XL and the compounds. After that, 3 μl of a 1.67-fold concentrated solution (in assay buffer) consisting of Bad BH3-derived peptide (1 nM end concentration) and TR-FRET detection reagents [1.67 nM anti-His-Eu cryptate and 1.67 nM streptavidin-XL665 (both from Cisbio Bioassays, Codolet, France)], were added.

Test [1] concerns the target Apoptosis regulator Bcl-2 (Homo sapiens, UniProt P10415). The description is as §1, with “Biological Assay 2: BCL-2” for “Biological Assay: BCL-XL”, “concentrated His-BCL-2” for “concentrated His-BCL-XL”, “50 mM” for “50 μM”, “between His-BCL-2” for “between His-BCL-XL”.

Some results are limits rather than exact numbers.

Apoptosis regulator Bcl-2, sequence (P10415 whole entry): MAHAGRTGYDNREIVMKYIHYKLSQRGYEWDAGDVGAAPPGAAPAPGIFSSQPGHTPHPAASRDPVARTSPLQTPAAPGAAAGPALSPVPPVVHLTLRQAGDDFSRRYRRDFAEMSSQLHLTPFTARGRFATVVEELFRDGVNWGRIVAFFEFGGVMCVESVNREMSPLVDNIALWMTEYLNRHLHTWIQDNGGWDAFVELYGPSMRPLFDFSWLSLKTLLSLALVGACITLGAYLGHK
Bcl-2-like protein 1, sequence (Q07817 whole entry): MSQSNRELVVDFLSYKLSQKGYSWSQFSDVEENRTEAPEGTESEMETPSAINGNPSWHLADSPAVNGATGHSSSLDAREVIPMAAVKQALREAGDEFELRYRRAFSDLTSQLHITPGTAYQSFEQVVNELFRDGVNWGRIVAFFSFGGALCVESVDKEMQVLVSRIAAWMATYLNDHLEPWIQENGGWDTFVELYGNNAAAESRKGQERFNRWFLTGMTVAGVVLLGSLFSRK

With `CCc1c2c(nn1C)COCCCCn1c(C(=O)O)c(CCCOc3cccc4ccccc34)c3ccc(F)c-2c31`, the IC50 (at Bcl-2-like protein 1; in test [1]) was more than 20 µM in each case.

For `Cc1c2c(nn1C)C[N+](C)(C)CCCCn1c(C(=O)O)c(CCCOc3cccc4ccccc34)c3ccc(F)c-2c31`, the IC50 (at Bcl-2-like protein 1; in test [1]) was more than 20 µM throughout.

On to `Cc1c2c(nn1C)COCCCCn1c(C(=O)O)c(CCCOc3cccc4cc(F)ccc34)c3ccc(F)c-2c31`, for which the 50% inhibitory concentration (IC50) (at Bcl-2-like protein 1; in test [1]) was more than 20 µM in each case.

As to `CCc1nn(C)c2c1-c1c(F)ccc3c(CCCOc4cccc5cc(F)ccc45)c(C(=O)O)n(c13)CCCCOC2`, the half-inhibitory concentration (IC50) (against Bcl-2-like protein 1; in test [1]) was more than 20 µM each time.

For the compound `CCc1c2c(nn1C)COCCCCn1c(C(=O)O)c(CCCOc3ccc(F)c4ccccc34)c3ccc(F)c-2c31`, the 50% inhibitory concentration (IC50) (on Bcl-2-like protein 1; in test [1]) was more than 20 µM throughout.

In the case of `Cc1c2c(nn1C)COCCCCn1c(C(=O)O)c(CCCOc3cccc4ccccc34)c3ccc(F)c-2c31`, the IC50 (against Bcl-2-like protein 1; in test [1]) was more than 20 µM each time.
